Target: T1, JAK3 (recombinant human kinase domain; h-jak3(810-1124)) (Homo sapiens, UniProt P52333)
T1 construct: h-jak3(810- 1124)-sf9-c; made in house; host or cells: Sf9 insect cells
Assay: Determination of IC50 of Janus Kinase (JAK) inhibition: JAK3, radioactive end-point assay with 33P-ATP
Assay type: biochemical
Settings: JAK3 kinase domain; ATP 1.5 uM, peptide 50 uM, 20 minutes, room temperature, 10% DMSO; read-out: Ic50 h-jak3(810-1124)-sf9-c:no additive
Text: Determination of IC50 of Janus Kinase (JAK) Inhibition:
Enzymes and peptide substrate used are described below: • JAK1: Recombinant human kinase domain from Invitrogen (Cat # PV4774) • JAK3: Recombinant human kinase domain from Millipore (Cat #14-629) or prepared. • JAK2: Recombinant human kinase domain from Millipore (Cat #14-640) • Substrate: N-terminally biotinylated 14-mer peptide derived from activation loop of JAK1 with sequence of the peptide substrate: Biotin-[sequence]
Assay Conditions Used are Described Below: • Assay Buffer: JAK Kinase Buffer: 50 mM Hepes [pH 7.2], 10 mM MgCl2, 1 mM DTT, • 1 mg/ml BSA. The assay is carried out in this buffer. • Assay Format The kinase activity of all three JAK kinases is measured using a radioactive, end-point assay and with trace amounts of ^33P-ATP. The assays are carried out in 96-well polypropylene plates.
All concentrations are final in the reaction mixture and all incubations are carried at room temperature. […] Final concentration of DMSO in the reaction is 10%. • 2) Compounds are preincubated with enzyme (0.5 nM JAK3 (commercially available), 0.2 nM JAK3 (prepared), 1 nM JAK2, 5 nM JAK1) for 10 minutes. • 3) Reactions are initiated by the addition of a cocktail of the two substrates (ATP and peptide premixed in the JAK Kinase Buffer). In the JAK2/JAK3 assays, ATP and the peptide are used at concentrations of 1.5 uM and 50 uM, respectively. JAK1 assay is carried out at an ATP concentration of 10 uM and a peptide concentration of 50 uM. • 4) The duration of the assay for JAK2 and JAK3 is 20 minutes. JAK1 assay is carried out for 40 minutes. With all three enzymes, reactions are terminated by the addition of 0.5M EDTA to a final concentration of 100 mM. • 5) 25 ul of terminated reactions are transferred to 150 ul of a 7.5% (v/v) slurry of streptavidin-coated sepharose beads in MgCl2- and CaCl2-free 1× Phosphate Buffered Saline containing 50 mM of EDTA in 96-well, 1.2 um MultiScreen-BV filter plates. • 6) After a 30-minute incubation, the beads are washed under vacuum with the following buffers: • a. 3 to 4 washes with 200 ul of 2M NaCl. • b. 3 to 4 washes with 200 ul of 2M NaCl plus 1% (v/v) phosphoric acid. • c. 1 wash with water. • 7) Washed plates are dried in a 60° C. oven for between 1 to 2 hours. • 8) 70 ul of Microscint 20 scintillation fluid is added to each well of filter plates and after at least 30 minutes of incubation, radioactive counts are measured in a Perkin-Elmer microplate scintillation counter.

T1 sequence (P52333 810-1124): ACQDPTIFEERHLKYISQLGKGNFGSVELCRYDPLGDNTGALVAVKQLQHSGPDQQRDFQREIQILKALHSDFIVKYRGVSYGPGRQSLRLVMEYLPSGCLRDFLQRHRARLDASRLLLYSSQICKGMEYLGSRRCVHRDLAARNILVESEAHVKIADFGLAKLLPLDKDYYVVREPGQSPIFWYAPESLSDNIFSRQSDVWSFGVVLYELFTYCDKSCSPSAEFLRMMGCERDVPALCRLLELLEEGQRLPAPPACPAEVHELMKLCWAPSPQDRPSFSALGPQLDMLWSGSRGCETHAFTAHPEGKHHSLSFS

Row | SMILES | IC50 [nM]
1 | O=C(NC(C1CCCCC1)C1CC1)c1c[nH]c2ncc(C3CC3)nc12 (stereo not shown) [Example I-78, 2-Cyclopropyl-5H-pyrrolo[2,3-b]pyrazine-7-carboxylic acid (cyclohexyl-cyclopropyl-methyl)-amide] | 78.6
2 | C[C@H](NC(=O)c1c[nH]c2ncc(C3CC3)nc12)c1ccccc1 [Example I-67, 2-Cyclopropyl-5H-pyrrolo[2,3-b]pyrazine-7-carboxylic acid ((S)-1-phenyl-ethyl)-amide] | 427
3 | CC[C@@H](CO)NC(=O)c1c[nH]c2ncc(C3CC3)nc12 [Example I-40, 2-Cyclopropyl-5H-pyrrolo[2,3-b]pyrazine-7-carboxylic acid ((S)-1-hydroxymethyl-propyl)-amide] | 128
4 | CC(C)c1cccc(-n2cnc(-c3cnc4[nH]cc(C(=O)N[C@@H](C)C(C)(C)C)c4n3)c2)c1 [Example I-152, 2-[1-(3-Isopropyl-phenyl)-1H-imidazol-4-yl]-5H-pyrrolo[2,3-b]pyrazine-7-carboxylic acid ((S)-1,2,2-trimethyl-propyl)-amide] | 25.3
5 | COCC(C)NC(=O)c1c[nH]c2ncc(C3CC3)nc12 (stereo not shown) [Example I-9, 2-Cyclopropyl-5H-pyrrolo[2,3-b]pyrazine-7-carboxylic acid (2-methoxy-1-methyl-ethyl)-amide] | 19.6
6 | CC[C@H](C)NC(=O)c1c[nH]c2ncc(C3CC3)nc12 [Example I-22, 2-Cyclopropyl-5H-pyrrolo[2,3-b]pyrazine-7-carboxylic acid ((S)-sec-butyl)-amide] | 5.9
7 | C[C@H](NC(=O)c1c[nH]c2ncc(C3CC3)nc12)C(C)(C)C(F)(F)F [Example I-54, 2-Cyclopropyl-5H-pyrrolo[2,3-b]pyrazine-7-carboxylic acid ((S)-3,3,3-trifluoro-1,2,2-trimethyl-propyl)-amide] | 5.46
8 | CC(C)[C@H](CO)NC(=O)c1c[nH]c2ncc(C3CC3)nc12 [Example I-56, 2-Cyclopropyl-5H-pyrrolo[2,3-b]pyrazine-7-carboxylic acid ((R)-1-hydroxymethyl-2-methyl-propyl)-amide] | 9.84
9 | COc1ccc(OC)c(CNC(=O)c2ccc(-c3cnc4[nH]cc(C(=O)N[C@@H](C)C(C)(C)C)c4n3)s2)c1 [Example I-204, 2-[5-(2,5-Dimethoxy-benzylcarbamoyl)-thiophen-2-yl]-5H-pyrrolo[2,3-b]pyrazine-7-carboxylic acid ((S)-1,2,2-trimethyl-propyl)-amide] | 0.56
10 | C[C@H](NC(=O)c1c[nH]c2ncc(C3CC3)nc12)c1cc[nH]n1 [Example I-37, 2-Cyclopropyl-5H-pyrrolo[2,3-b]pyrazine-7-carboxylic acid [(S)-1-(1H-pyrazol-3-yl)-ethyl]-amide] | 22
11 | COc1cccc(CNC(=O)c2ccc(-c3cnc4[nH]cc(C(=O)N[C@@H](C)C(C)(C)C)c4n3)s2)c1 [Example I-206, 2-[5-(3-Methoxy-benzylcarbamoyl)-thiophen-2-yl]-5H-pyrrolo[2,3-b]pyrazine-7-carboxylic acid ((S)-1,2,2-trimethyl-propyl)-amide] | 0.32
12 | CS(=O)(=O)N1CCCC(CNC(=O)c2c[nH]c3ncc(C4CC4)nc23)C1 (stereo not shown) [Example I-108, 2-Cyclopropyl-5H-pyrrolo[2,3-b]pyrazine-7-carboxylic acid (1-methanesulfonyl-piperidin-3-ylmethyl)-amide] | 163
13 | Cc1ccc([C@@H](C)NC(=O)c2ccc(-c3cnc4[nH]cc(C(=O)N[C@@H](C)C(C)(C)C)c4n3)s2)cc1 [Example I-202, 2-[5-((R)-1-p-Tolyl-ethylcarbamoyl)-thiophen-2-yl]-5H-pyrrolo[2,3-b]pyrazine-7-carboxylic acid ((S)-1,2,2-trimethyl-propyl)-amide] | 0.52
14 | C[C@H](NC(=O)c1c[nH]c2ncc(-c3ccc(C(=O)NCc4ccncc4)s3)nc12)C(C)(C)C [Example I-165, 2-{5-[(Pyridin-4-ylmethyl)-carbamoyl]-thiophen-2-yl}-5H-pyrrolo[2,3-b]pyrazine-7-carboxylic acid ((S)-1,2,2-trimethyl-propyl)-amide] | 0.17
15 | CCNC(=O)c1c[nH]c2ncc(Oc3cccc4c3CCCC4)nc12 [Example I-259] | 6710
16 | Cc1cc(-c2cnc3[nH]cc(C(=O)N[C@@H](C)C(C)(C)C)c3n2)sc1C(=O)N1CC2(COC2)C1 [Example I-221, 2-[4-Methyl-5-(2-oxa-6-aza-spiro[3.3]heptane-6-carbonyl)-thiophen-2-yl]-5H-pyrrolo[2,3-b]pyrazine-7-carboxylic acid ((S)-1,2,2-trimethyl-propyl)-amide] | 0.08
17 | CC(=O)N[C@@H]1CCc2ccc(Oc3cnc4[nH]cc(C(=O)N[C@@H](C)C(C)(C)C)c4n3)cc21 [Example I-287, 2-((R)-3-Acetylamino-indan-5-yloxy)-5H-pyrrolo[2,3-b]pyrazine-7-carboxylic acid ((S)-1,2,2-trimethyl-propyl)-amide] | 20.2

Row | SMILES | IC50 [nM]
18 | C[C@H](NC(=O)c1c[nH]c2ncc(C3=CCCCC3)nc12)C(C)(C)O [Example I-7, 2-Cyclohex-1-enyl-5H-pyrrolo[2,3-b]pyrazine-7-carboxylic acid ((S)-2-hydroxy-1,2-dimethyl-propyl)-amide] | 4.51
19 | C[C@H](NC(=O)c1c[nH]c2ncc(-c3ccc(C(=O)NCc4cccc(C(F)(F)F)c4)s3)nc12)C(C)(C)C [Example I-207, 2-[5-(3-Trifluoromethyl-benzylcarbamoyl)-thiophen-2-yl]-5H-pyrrolo[2,3-b]pyrazine-7-carboxylic acid ((S)-1,2,2-trimethyl-propyl)-amide] | 0.73
20 | CC(C)NC(=O)c1c[nH]c2ncc(Oc3ccc4c(c3)C(=O)CC4)nc12 [Example I-297, 2-(3-Oxo-indan-5-yloxy)-5H-pyrrolo[2,3-b]pyrazine-7-carboxylic acid isopropylamide] | 573
21 | CC(C)(O)[C@@H](NC(=O)c1c[nH]c2ncc(C3CC3)nc12)C1CC1 [Example I-73, 2-Cyclopropyl-5H-pyrrolo[2,3-b]pyrazine-7-carboxylic acid ((S)-1-cyclopropyl-2-hydroxy-2-methyl-propyl)-amide] | 92.4
22 | C[C@H](NC(=O)c1c[nH]c2ncc(Oc3ccccc3)nc12)C(C)(C)O [Example I-128, 2-Phenoxy-5H-pyrrolo[2,3-b]pyrazine-7-carboxylic acid ((S)-2-hydroxy-1,2-dimethyl-propyl)-amide] | 211
23 | CCNC(=O)c1ccc(-c2cnc3[nH]cc(C(=O)N[C@@H](C)C(C)(C)C)c3n2)s1 [Example I-155, 2-(5-Ethylcarbamoyl-thiophen-2-yl)-5H-pyrrolo[2,3-b]pyrazine-7-carboxylic acid ((S)-1,2,2-trimethyl-propyl)-amide] | 0.32
24 | CC(C)c1cnc2[nH]cc(C(=O)N[C@@H](C)C(C)(C)O)c2n1 [Example I-5, 2-Isopropyl-5H-pyrrolo[2,3-b]pyrazine-7-carboxylic acid ((S)-2-hydroxy-1,2-dimethyl-propyl)-amide] | 302
25 | C[C@H](NC(=O)c1c[nH]c2ncc(-c3ccc(C(F)(F)F)cc3)nc12)C(C)(C)C [Example I-143, 2-(4-Trifluoromethyl-phenyl)-5H-pyrrolo[2,3-b]pyrazine-7-carboxylic acid ((S)-1,2,2-trimethyl-propyl)-amide] | 6.28
26 | CC(C)(C)[C@H](CC#N)NC(=O)c1c[nH]c2ncc(C3CC3)nc12 [Example I-77, 2-Cyclopropyl-5H-pyrrolo[2,3-b]pyrazine-7-carboxylic acid ((S)-1-cyanomethyl-2,2-dimethyl-propyl)-amide] | 13.7
27 | CCNC(=O)c1c[nH]c2ncc(Oc3cccc(OC(F)(F)F)c3)nc12 [Example I-246, 2-(3-Trifluoromethoxy-phenoxy)-5H-pyrrolo[2,3-b]pyrazine-7-carboxylic acid ethylamide] | 3460
28 | CC(C)(C)CNC(=O)c1c[nH]c2ncc(C3CC3)nc12 [Example I-55, 2-Cyclopropyl-5H-pyrrolo[2,3-b]pyrazine-7-carboxylic acid (2,2-dimethyl-propyl)-amide] | 29.4
29 | C[C@H](NC(=O)c1c[nH]c2ncc(C3CC3)nc12)[C@](C)(O)CC1CC1 [Example I-48, 2-Cyclopropyl-5H-pyrrolo[2,3-b]pyrazine-7-carboxylic acid ((1S,2R)-3-cyclopropyl-2-hydroxy-1,2-dimethyl-propyl)-amide] | 116
30 | C[C@H](NC(=O)c1c[nH]c2ncc(-c3ccc(C(=O)NCCC(F)(F)F)s3)nc12)C(C)(C)C [Example I-216, 2-[5-(3,3,3-Trifluoro-propylcarbamoyl)-thiophen-2-yl]-5H-pyrrolo[2,3-b]pyrazine-7-carboxylic acid ((S)-1,2,2-trimethyl-propyl)-amide] | 0.18
31 | C[C@H](NC(=O)c1c[nH]c2ncc(-c3ccc(C(=O)Nc4ccccc4)s3)nc12)C(C)(C)C [Example I-201, 2-(5-Phenylcarbamoyl-thiophen-2-yl)-5H-pyrrolo[2,3-b]pyrazine-7-carboxylic acid ((S)-1,2,2-trimethyl-propyl)-amide] | 0.57
32 | CC(C)NC(=O)c1c[nH]c2ncc(Oc3ccc4c(c3)[C@H](NS(C)(=O)=O)CC4)nc12 [Example I-268, 2-((R)-3-Methanesulfonylamino-indan-5-yloxy)-5H-pyrrolo[2,3-b]pyrazine-7-carboxylic acid isopropylamide] | 155
33 | C[C@H](NC(=O)c1c[nH]c2ncc(-c3ccc(C(=O)NCc4ccc(F)cc4)s3)nc12)C(C)(C)C [Example I-185, 2-[5-(4-Fluoro-benzylcarbamoyl)-thiophen-2-yl]-5H-pyrrolo[2,3-b]pyrazine-7-carboxylic acid ((S)-1,2,2-trimethyl-propyl)-amide] | 0.32
34 | CC(O)CCNC(=O)c1c[nH]c2ncc(C3CC3)nc12 (stereo not shown) [Example I-68, 2-Cyclopropyl-5H-pyrrolo[2,3-b]pyrazine-7-carboxylic acid (3-hydroxy-butyl)-amide] | 358
